Results taken from BindingDB's records for doi:10.1016/0014-2999(96)00122-7 (Synaptic Pharmaceutical, 1996).
pKi: −log10 of the molar value.

Target: 5-hydroxytryptamine receptor 4 (Rattus norvegicus, UniProt Q62758)
Sequence (Q62758 whole entry): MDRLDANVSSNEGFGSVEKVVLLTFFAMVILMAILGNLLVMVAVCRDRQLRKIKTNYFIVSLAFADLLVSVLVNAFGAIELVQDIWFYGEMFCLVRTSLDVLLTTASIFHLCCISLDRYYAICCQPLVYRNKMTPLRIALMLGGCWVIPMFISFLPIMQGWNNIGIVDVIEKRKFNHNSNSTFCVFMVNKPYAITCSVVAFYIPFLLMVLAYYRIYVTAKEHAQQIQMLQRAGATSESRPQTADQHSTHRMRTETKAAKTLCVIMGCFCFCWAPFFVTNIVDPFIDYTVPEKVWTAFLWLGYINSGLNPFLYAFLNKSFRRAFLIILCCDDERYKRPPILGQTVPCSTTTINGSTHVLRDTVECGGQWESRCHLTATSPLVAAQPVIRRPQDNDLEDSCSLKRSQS

Point of comparison: `COc1cc(N)c(Cl)cc1C(=O)NC1CCN2CCCC1C2` (stereo unspecified) [NSC_3035240], pKi 7.57. Against it:
- CN1C2CCC1CC(OC(=O)c1c[nH]c3ccccc13)C2 (stereo unspecified) — 0.77 log units lower, 6.80
- COc1cc(N)c(Cl)cc1C(=O)NC1CCN(CCCOc2ccc(F)cc2)CC1OC (stereo unspecified) [4-amino-5-chloro-N-(1-(3-(4-fluorophenoxy)propyl)-3-methoxypiperidin-4-yl)-2-methoxybenzamide] — within 0.2 log units, 7.60
- Cn1cc(CCN)c2cc(O)ccc21 [5-HT,omega-N-Me] — 0.99 log units lower, 6.58
- NCCc1c[nH]c2ccc(C(N)=O)cc12 [[3H]-5-carboxamidotryptamine] — 1.57 log units lower, 6.00
- COc1ccc2[nH]cc(CCN)c2c1 [tryptamine, 5-Methoxy] — 0.62 log units lower, 6.95
